Assay results taken from PMC6826694, “Validation of Hepatocellular Carcinoma Experimental Models for TGF-β Promoting Tumor Progression” (Cancers, 2019).

Key:
[1] = test system: TGF-β linked EMT transition; conditions: female BALB/C nude mice, subcutaneous Hg2 cells; ref [44]; cited from earlier work
[2] = test system: CD133 and Vimentin; parameters: method as in PMID 29805610; conditions: ref [23]; cited from earlier work
[3] = test system: TGF-β1 SMAD2/3 pathway; parameters: method as in PMID 29957876; conditions: CC14-induced mice; ref [20]; cited from earlier work
[4] = test system: SK-HEP1-Luc cells; parameters: method as in PMID 26549110; conditions: oral administration, female BALB/C nu/nu, orthotopic SK-HEP1-Luc; ref [45]; cited from earlier work
[5] = Appearance / solubility of Galunisertib in the dosing formulations; format: physicochemical
Protocol: (§1) Firstly, we quantified the concentration of LY2157299 in plasma of female CD-1 mice by a liquid chromatographic method, in order to define the concentration for the therapeutic window. Therefore, the drug was administered orally and given in two formulations. Group 1 (15 mice) received Galunisertib as suspension (75 mg/kg) prepared by mixing Galunisertib with 1% Carboxymethylcellulose, 0.5% Sodium Lauryl Sulfate, 0.085% Povidone, followed by sonication in a water bath sonicator or with a probe sonicator until a fine suspension with a final concentration of 7.5 mg/mL was achieved. Group 2 (15 mice) received Galunisertib as solution (150 mg/kg solution) prepared by dissolving the drug in 10% of dimethylsulfoxide (DMSO), and then adding sequentially polyethylene glycol (PEG)400 (30%), ethanol (EtOH) (10%), saline (30%) and HCl 0.01 M (20%) at a final pH of ~6 under mixing to a final concentration of 15 mg/mL.

[6] = test system: TGF-β1, TGF-β RI and TGF-β RII mRNA; assay: qRT-PCR mRNA expression in tumor tissues of the orthotopic model; format: in vivo, mouse; conditions: for mRNA expression of TGF-βI, TGF-β RI and TGF-β RII levels vs controls: tumor tissues, qRT-PCR
Description: No difference was found comparing the two Galunisertib formulations.

[7] = test system: invasive HCC cells (HLE and HLF); parameters: method as in PMID 29515105, PMID 26057634; conditions: in vitro and in ex vivo human HCC samples; ref [24, 25]; cited from earlier work
[8] = test system: pancreatic ductal adenocarcinoma; parameters: method as in PMID 30866547; conditions: ref [17]; cited from earlier work
[9] = Plasma pharmacokinetics of Galunisertib after single oral dose (HPLC-FL); format: in vivo, mouse; conditions: for AUC(0-t) / Cmax / Tmax / half-life / k el: mouse, single oral dose, female CD-1 mice, plasma
Protocol: as §1
The volume of administration was 10mL/kg for single treatment. Physical appearance, behavior as well as general and local clinical signs of the mice were monitored throughout the experiment. […] At predefined time points (0.5, 1, 2, 4, 8 h after administration), the animals were deeply anesthetized by isoflurane followed by a complete retro-orbital bleeding. The blood was collected in heparinized tubes and centrifuged at 6000× g for 5–10 minutes within 15 minutes after collection. The plasma was transferred to tubes and stored at −20 °C until analysis.
To quantify the concentration of Galunisertib, plasma was measured by a HPLC/Fluorimetric (HPLC-FL) method.
The pharmacokinetic parameters (Kelim, T1/2, and Tmax.) represented as mean ± SD of three animals/time for both Galunisertib formulations were determined using the MKModel by Nick Holford software Version 4, (Biosoft, Ferguson, MO, USA) or equivalent pharmacokinetic programs (Table 4).

[10] = test system: SKIL and PMEPA1 mRNA; conditions: HCC tumor tissues; ref [26]; cited from earlier work
[11] = test system: HepG2 cells; parameters: method as in PMID 23826206; conditions: exogenous TGF-β1 in vitro, ref [22]; cited from earlier work
[12] = test system: HepG2-Luc cells; assay: Orthotopic HCC model, intrahepatic HepG2-Luc cells in NOG mice, tumor growth by IVIS bioluminescence; format: in vivo, mouse; conditions: for Bioluminescence (average radiance, IVIS) vs vehicle (GP1): NOG mice, HepG2-Luc
Protocol: To evaluate in vivo the effect of Galunisertib (LY2157299) on tumor growth rate we used an orthotopic model: HCC was induced by intrahepatic injections of 1 × 10^6 HepG2-Luc cells in 7–8 weeks old, female NOG mice. The inoculated animals presented a clear engraftment of the liver cancer. The tumor growth was monitored weekly with IVIS Spectrum (PerkinElmer) through intraperitoneal administration of D-Luciferin (Sigma, 150 mg/10 mL/kg) until the end of the experiment.
Two weeks after the injection of HepG2-Luc cells, 45 mice were selected based on the bioluminescence signal and randomized into three groups of 15 animals. The first group (control group) was treated with 10 mL/kg of a […] vehicle solution (10% DMSO, 30% PEG400, 10% EtOH, 30% saline solution, 20% HCl 0.01 M, final pH 6.0). The second group (GP2) received 10 mL/kg Galunisertib solution via gastric probe (OS) and in the third group of mice (GP3) the drug was administered intravenously (IV) with 5 mL/kg Galunisertib encapsulated in polymeric nanocapsules. This nanoencapsulation was used to optimize the formulation in order to maximize therapeutic efficiency and minimize systemic toxicity. The nanocapsules were prepared from biocompatible and biodegradable polymers as described previously.
After sacrificing the animals, a complete necropsy was performed and documented by photos. Before sacrificing the animals, they were imaged by IVIS Spectrum to identify bioluminescent tissues for explantation.
Figure 4 Treatment of NOD/Shi-Scid/IL-2Rγ^null […] (NOG) mice with luciferin-labeled hepatocellular carcinoma (HCC) with vehicle or two Galunisertib preparations. (A). Bioluminescence images of NOG mice prior injected intrahepatically with HepG2-Luc cells at Day 23 and 44 after vehicle injection (GP1), or Galunisertib administration via gavage (GP2) or intravenous route (GP3). (B) Average Radiance (IVIS) versus time after tumor inoculation. Data were averaged over the animals which reached the end of experiment (GP1: n = 15; GP2: n = 14; GP3: n = 10).

[13] = test system: CD44 and THY1; parameters: method as in PMID 29515105, PMID 26057634; conditions: HLE and HLF cells in vitro; ref [24, 25]; cited from earlier work

C[S+]([O-])CCCCN=C=S (stereo not shown) [Sulforaphane]
Effect on TGF-β linked EMT transition [1]: Sulforaphane inhibits TGF-β linked EMT transition

NC(=O)c1ccc(-c2nc(-c3ccc4c(c3)OCO4)c(-c3ccccn3)[nH]2)cc1 [SB431542]
Expression of CD133 and Vimentin [2]: upregulated | Effect on liver fibrosis and TGF-β1 SMAD2/3 [3]: significantly attenuated

Cc1cccc(-c2[nH]c(CNc3ccccc3F)nc2-c2ccc3ncnn3c2)n1 [EW-7197]
Effect on tumor growth [4]: ALK 5 inhibitor interferes with tumor growth

Cc1cccc(-c2nn3c(c2-c2ccnc4ccc(C(N)=O)cc24)CCC3)n1 [Galunisertib]
Appearance / solubility in formulation ([5]; new formulation, 150 mg/kg solution: 10% DMSO, 30% PEG400, 10% EtOH, 30% saline, 20% HCl 0.01 M, pH ~6, 15 mg/mL): completely clear solution | Appearance / solubility in formulation ([5]; old formulation (75 mg/kg): 1% Carboxymethylcellulose, 0.5% Sodium Lauryl Sulfate, 0.085% Povidone, 7.5 mg/mL): only moderately soluble | mRNA level of the drug target compared to controls treated with vehicle ([6]; orthotopic HepG2-Luc model, NOG mice): statistically significant reduction (p = 0.03) | mRNA expression of TGF-βI, TGF-β RI and TGF-β RII levels vs controls ([6]; mice treated with Galunisertib solution): significant (p < 0.05) down-regulation | mRNA expression of TGF-βI, TGF-β RI and TGF-β RII levels vs controls ([6]; mice treated with encapsulated Galunisertib): significant (p < 0.05) down-regulation | Colony formation, liver spheroids and invasive growth capacity [7]: decrease | Effect on mast cell-mediated resistance to GEM/NAB (reduced apoptosis, TGF-β signaling, invasion) [8]: restored | Cmax and AUClast higher than the 75 mg/kg suspension ([9]; 150 mg/kg solution vs 75 mg/kg suspension, considering the dose correcting factor): 2.5 fold | AUC(0-t) ([9]; Solution (150 mg/kg)): 15500 ng·h/mL | Cmax ([9]; Solution (150 mg/kg)): 19000 ng/mL | Tmax ([9]; Solution (150 mg/kg)): 30 min | half-life ([9]; Solution (150 mg/kg)): 103 min | k el ([9]; Solution (150 mg/kg)): 0.000164 s⁻¹ | AUC(0-t) ([9]; Suspension (75mg/kg)): 3110 ng·h/mL | Cmax ([9]; Suspension (75mg/kg)): 3330 ng/mL | Tmax ([9]; Suspension (75mg/kg)): 30 min | half-life ([9]; Suspension (75mg/kg)): 84 min | k el ([9]; Suspension (75mg/kg)): 0.000136 s⁻¹ | SKIL and PMEPA1 mRNA expression [10]: strongly down-regulated | Effect on TGF-β1-induced changes (flat, larger cells; reduced E-cadherin in cell–cell contact) [11]: reversed | Bioluminescence (average radiance, IVIS) vs vehicle (GP1) ([12]; GP2 (LY × OS): 10 mL/kg Galunisertib solution via gastric probe): no significant difference in bioluminescence | Bioluminescence (average radiance, IVIS) vs vehicle (GP1) ([12]; GP3 (LY × IV): 5 mL/kg Galunisertib encapsulated in polymeric nanocapsules, intravenous): no significant difference in bioluminescence | Effect on tumor regression or prevention of metastasis ([12]; treated groups (GP2 gavage, GP3 intravenous) vs control, treatment period Day 16–Day 44): no effect on tumor regression or prevention of metastasis | Expression of CD44 and THY1 [13]: reducing the expression
